“Also recorded” adds a separate entry of the source.

We go through two molecules from patent US20260216239A1 (Arizona Board of Regents on Behalf of the University of …, priority 2020, published 2026).

One test relates to human plasma. The following applies: cited from earlier work.
A further test has as its system Atheris nitschei venom. Nature of the test: Thrombelastography in human plasma of venom procoagulant activity after isolated exposure of venom to compounds. Format: biochemical. The following applies: venom 1 μg/mL in plasma. The procedure: (§1) All venom solutions without or with chemical additions in isolation were added as a 1% addition to the plasma mix used in our thrombelastographic system (see, Nielsen, V. G.; et al., Biometals 2016, 29, 913-919; Nielsen, V. G.; Losada, P. A. Basic Clin. Pharmacol. Toxicol. 2017, 120, 207-212; Nielsen, V. G.; Frank, N. J. Thromb. Thrombolysis 2019, 47, 533-539; Nielsen, V. G.; Bazzell, C. M. J. Thromb. Thrombolysis 2017, 43, 203-208; Nielsen, V. G.; Matika, R. W. Hum. Exp. Toxicol. 2017, 36, 727-733; Nielsen, V. G.; et al., Toxins 2018, 10, 322; Nielsen, V. G.; et al., Biometals 2018, 31, 51-59; Nielsen, V. G.; Frank, N. et al., Biometals 2018, 31, 951-959; Nielsen, V. G.; et al., Toxins 2019, 11, 94; Nielsen, V. G.; Frank, N. Hum Exp. Toxicol. 2019, 38, 216-226; Nielsen, V. G. J. Thromb. Thrombolysis 2019, 48, 256-262; Nielsen, V. G.; et al., Blood Coagul. Fibrinolysis 2019, 30, 379-384; Nielsen, V. G. J. Thromb. Thrombolysis 2019, 47, 73-79; Gessner, G.; et al., Eur. J. Pharmacol. 2017, 815, 33-41). […] The thrombelastographic model describes coagulation kinetics with the following three variables: time to maximum thrombus generation (TMRTG, minutes—a measure of time to onset of coagulation), maximum rate of thrombus generation (MRTG, dynes/cm^2/s—a measure of the velocity of clot growth) and total thrombus generation (TTG, dynes/cm^2—a measure of clot strength).
The volumes of subsequently described plasmatic and other additives summed to a final volume of 360 μL. Samples were composed of 320 μL of plasma; 16.4 μL of PBS, 20 μL of 200 mM CaCl2), and 3.6 μL of PBS, RuCl3, or venom solution mixture, which were pipetted into a disposable cup in a Thrombelastograph® hemostasis system (Model 5000, Haemonetics Inc., Braintree, MA, USA) at 37° C., and then rapidly mixed by moving the cup up against and then away from the plastic pin five times. The PBS, RuCl3, or venom solution mixtures was always the last constituent added prior to mixing and data collection. The following viscoelastic parameters described previously (see, Nielsen, V. G.; et al., Biometals 2016, 29, 913-919; Nielsen, V. G.; Losada, P. A. Basic Clin. Pharmacol. Toxicol. 2017, 120, 207-212; Nielsen, V. G.; Frank, N. J. Thromb. Thrombolysis 2019, 47, 533-539; Nielsen, V. G.; Bazzell, C. M. J. Thromb. Thrombolysis 2017, 43, 203-208; Nielsen, V. G.; Matika, R. W. Hum. Exp. Toxicol. 2017, 36, 727-733; Nielsen, V. G.; et al., Toxins 2018, 10, 322; Nielsen, V. G.; et al., Biometals 2018, 31, 51-59; Nielsen, V. G.; Frank, N. et al., Biometals 2018, 31, 951-959; Nielsen, V. G.; et al., Toxins 2019, 11, 94; Nielsen, V. G.; Frank, N. Hum Exp. Toxicol. 2019, 38, 216-226; Nielsen, V. G. J. Thromb. Thrombolysis 2019, 48, 256-262; Nielsen, V. G.; et al., Blood Coagul. Fibrinolysis 2019, 30, 379-384; Nielsen, V. G. J. Thromb. Thrombolysis 2019, 47, 73-79) were measured: time to maximum rate of thrombus generation (TMRTG): this is the time interval (minutes) observed prior to maximum speed of clot growth; maximum rate of thrombus generation (MRTG): this is the maximum velocity of clot growth observed (dynes/cm^2/s); and total thrombus generation (TTG, dynes/cm^2), the final viscoelastic resistance observed after clot formation. Data were collected until the clot strength reached its final plateau (maximum amplitude) that was stable for 3 min.

A further test concerns Echis leucogaster venom. Described as above. Format: biochemical. On the procedure: Thrombelastographic analyses. The volumes of subsequently described plasmatic and other additives summed to a final volume of 360 μl. Samples were composed of 320 μl of plasma; 16.4 μl of PBS, 20 μl of 200 mM CaCl2), and 3.6 μl of PBS or venom mixture, which were pipetted into a disposable cup in a Thrombelastograph® hemostasis system (Model 5000, Haemonetics Inc., Braintree, MA, USA) at 37° C., and then rapidly mixed by moving the cup up against and then away from the plastic pin five times. The following viscoelastic parameters described previously (see, Nielsen V G (2019) J Thromb Thrombolysis 47, 73-79; Gessner G, et al., (2017) Eur J Pharmacol 815, 33-41; Nielsen V G, Wagner M T, Frank N (2020) Int J Mol Sci 21, 2082; Lazić D, Arsenijević A, Puchta R, Bugarčić ŽD, Rilak A (2016) Dalton Trans 45, 4633; Hanif M, et al., (2017) ChemPlusChem 82, 841-847) were measured: time to maximum rate of thrombus generation (TMRTG): this is the time interval (minutes) observed prior to maximum speed of clot growth; maximum rate of thrombus generation (MRTG): this is the maximum velocity of clot growth observed (dynes/cm^2/second); and total thrombus generation (TTG, dynes/cm^2), the final viscoelastic resistance observed after clot formation.
E. leucogaster. This venom was exposed to 0 or 100 μM CORM-2 in the presence of 0 or 100 μM RuCl3 in PBS for at least 5 minutes at room temperature prior to placement into plasma followed immediately with commencement of thrombelastographic analysis. The final concentration of this venom in plasma was 1 μg/ml.
Given the aforementioned, the experimental conditions utilized were: 1) V condition—venom in PBS; 2) Ru(II) condition—venom exposed to CORM-2; 3) Ru(III) condition—venom exposed to RuCl3; 4) Ru(II+III) condition—venom exposed to CORM-2 and RuCl3 simultaneously. After the 5 minute period at room temperature, 3.6 μl of one of these solutions was added to the plasma sample in the plastic thrombelastograph cup.
as §1

Where [1] appears, read: 100 μM CORM-2, 100 μM RuCl3 or both, venom 1 μg/ml in plasma.
Where [2] appears, read: venom exposed ≥5 min in PBS to 100 μM CORM-2, 100 μM RuCl3 or both, venom 1 μg/ml in plasma.
[3] abbreviates: venom exposed 5 min to 100 μM RuCl3 in PBS.
Where [4] appears, read: venom exposed 5 min to 100 μM RuCl3 in PBS, venom 1 μg/mL in plasma (Example III).

As for `[C-]#[O+].[C-]#[O+].[C-]#[O+].[C-]#[O+].[C-]#[O+].[C-]#[O+].[Cl][Ru][Cl].[Cl][Ru][Cl]` [CORM-2, tricarbonyldichlororuthenium(II) dimer], the coagulation kinetics result in the test with human plasma (1 μM CORM-2) is recorded as “does not affect”. For the same molecule, the plasmatic coagulation kinetics result in the test on human plasma (up to 10 μM CORM-2 in PBS) is on record as “no effect”. In addition, the “procoagulant activity of venom” value in the test on Atheris nitschei venom (venom exposed 5 min to 100 μM CORM-2 in 5% human albumin) is “uninhibited”; with Atheris nitschei venom (venom exposed 5 min to 100 μM CORM-2 in PBS), “significantly attenuated”; in the test on Echis leucogaster venom (venom exposed 5 min to 100 μM CORM-2 in PBS, venom 1 μg/mL in plasma (Example III)), “significantly attenuated”; in the test on Echis leucogaster venom (setting [2]), “significantly decreased; also recorded: procoagulant activity inhibition”. The “maximum rate of thrombus generation (MRTG)” value with Echis leucogaster venom (setting [1]) is recorded as “decrease”. The “time to maximum rate of thrombus generation (TMRTG)” value in the test with Echis leucogaster venom (setting [1]) is listed as “increased; also recorded: significant increase”.
Regarding `[Cl][Ru]([Cl])[Cl]` [RuCl3, ruthenium(III) chloride], in the test on human plasma (RuCl3 at or below 1 μM), the human plasmatic coagulation result is “does not significantly affect”. Besides, the entries for the “maximum rate of thrombus generation (MRTG)” value with Atheris nitschei venom (setting [3]), with Echis leucogaster venom (setting [1]) and in the test with Echis leucogaster venom (setting [4]) were “significant increase”, “decrease” and “decrease”, respectively. In addition, the “time to maximum rate of thrombus generation (TMRTG)” value with Atheris nitschei venom (setting [3]) is on record as “very diminutive increase”; in the test with Echis leucogaster venom (setting [1]) it was “increase”; in the test with Echis leucogaster venom (setting [4]), “significant increase”. The “total thrombus generation (TTG)” value in the test on Atheris nitschei venom (setting [3]) is given as “significant increase”; with Echis leucogaster venom (setting [4]), “decrease”. In addition, the “procoagulant activity of venom” value with Echis leucogaster venom (setting [2]) is reported as “significantly diminished”.
